The source of these data is patent US12679878B2, “CRF2 receptor agonists and their use in therapy” (SANOFI, priority 2020, dated 2026).

Usually EC50 stands for the concentration that produces a half-maximal response. In general, Emax refers to the size of the effect at its maximum, as opposed to the concentration needed.

Read-outs that look alike come from different tables or passages of the source. Starred links: 1 amine or outer side, 2 acyl side, 3 side chain; linkers in the order of their positions; H or OH if unused. Non-standard residues stand in square brackets, D forms with d. Residues, ends and D or L forms follow the SMILES beside them. Groups on a side chain read outwards from the residue. *: point of attachment. C18 diacid = O=C(O)CCCCCCCCCCCCCCCCC(=O)*; γGlu = O=C(O)[C@H](CCC(=O)[*:2])N[*:1]; AEEA = NCCOCCOCC(=O)O; Aib = CC(C)(N)C(=O)O

Assay [1] has as its target T1, human CRF2α receptor (Homo sapiens, UniProt Q13324).
T1 construct: expressed in transfected cells; host or cells: TeloHEAC
T1 sequence (Q13324 1-411): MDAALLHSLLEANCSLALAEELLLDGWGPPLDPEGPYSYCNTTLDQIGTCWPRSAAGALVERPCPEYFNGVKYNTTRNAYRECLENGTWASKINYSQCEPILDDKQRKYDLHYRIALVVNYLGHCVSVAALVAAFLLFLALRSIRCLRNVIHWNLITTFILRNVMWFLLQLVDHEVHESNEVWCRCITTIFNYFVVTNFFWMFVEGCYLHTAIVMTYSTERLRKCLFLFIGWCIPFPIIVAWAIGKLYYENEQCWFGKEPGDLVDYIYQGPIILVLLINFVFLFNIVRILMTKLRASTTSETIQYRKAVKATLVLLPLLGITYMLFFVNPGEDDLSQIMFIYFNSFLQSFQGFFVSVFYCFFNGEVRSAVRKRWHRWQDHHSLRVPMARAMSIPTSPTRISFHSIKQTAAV
Nature of the assay: cAMP agonism at human CRF2 α receptor in TeloHEAC cells (Example 7). It counts as cell-based. Conditions: cAMP HTRF, TeloHEAC cells stably expressing human CRF2 α. Put shortly:
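Percent activation was referenced to 1000 nM UCN2 (100%), and EC50 values taken as concentrations giving half of maximal response. The read-out was a homogeneous time-resolved fluorescence cAMP kit, fluorescence ratio 665/620 nm. Thawed cells (2000/well) saw compound for 30 min at RT in buffer with 2 mM IBMX and 0%/0.1% HSA.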
(In general: Time-resolved FRET reads energy transfer from a long-lived donor to a nearby acceptor.)

Assay [2] concerns the target T2, CRF1R receptor (Homo sapiens, UniProt P34998).
T2 construct: host or cells: CHO-K1 clone 2
T2 sequence (P34998 24-415): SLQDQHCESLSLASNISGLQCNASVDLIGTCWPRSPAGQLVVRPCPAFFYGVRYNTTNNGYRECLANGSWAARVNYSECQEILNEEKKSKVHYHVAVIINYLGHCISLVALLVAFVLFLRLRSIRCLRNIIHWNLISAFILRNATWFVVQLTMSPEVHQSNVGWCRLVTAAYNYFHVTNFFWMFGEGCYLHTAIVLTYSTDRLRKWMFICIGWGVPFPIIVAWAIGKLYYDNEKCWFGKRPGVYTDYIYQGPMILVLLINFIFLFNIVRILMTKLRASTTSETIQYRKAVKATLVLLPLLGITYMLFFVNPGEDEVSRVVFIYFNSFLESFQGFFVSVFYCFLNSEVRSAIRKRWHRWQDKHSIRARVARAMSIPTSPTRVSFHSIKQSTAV
Briefly: cAMP activity at anti-target CRF1R, CHO-K1 cell line clone 2 (Example 19.10). It counts as cell-based. The note with it: CRF1R CHO-K1 clone 2; for EC50: 0% HSA, read-out: EC50 [nM] 0% HSA; for Emax: 100% = Sauvagine at 100 nM. Put shortly: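 A CRF1R-overexpressing CHO-K1 line (clone 2) was grown in F12/10% FBS/G418 and frozen in aliquots before use. The cAMP assay followed the preceding procedure, with 100% activation defined by Sauvagine at 100 nM.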

The mark [3] stands for this setting: 0% HSA, read-out: EC50 [nM], 0% HSA.

For `CC[C@H](C)[C@H](N)C(=O)N[C@H](C(=O)N[C@@H](CC(C)C)C(=O)N[C@@H](CO)C(=O)N[C@@H](CC(C)C)C(=O)N[C@@H](CC(=O)O)C(=O)N[C@H](C(=O)N1CCC[C@H]1C(=O)N[C@H](C(=O)N[C@@H](CCCCN)C(=O)N[C@@H](CC(C)C)C(=O)N[C@@H](CCCCNC(=O)COCCOCCNC(=O)COCCOCCNC(=O)CC[C@H](NC(=O)CCCCCCCCCCCCCCCCC(=O)O)C(=O)O)C(=O)N[C@@H](CCC(N)=O)C(=O)N[C@H](C(=O)N[C@@H](CC(C)C)C(=O)N[C@@H](CC(C)C)C(=O)N[C@@H](CCC(=O)O)C(=O)N[C@@H](CCC(N)=O)C(=O)N[C@@H](CCC(=O)O)C(=O)N[C@@H](CCCNC(=N)N)C(=O)N[C@@H](CCC(N)=O)C(=O)N[C@@H](CCCCN)C(=O)NC(C)(C)C(=O)N[C@@H](CCC(N)=O)C(=O)N[C@@H](CCCNC(=N)N)C(=O)N[C@@H](CCC(=O)O)C(=O)N[C@@H](CCC(N)=O)C(=O)N[C@@H](C)C(=O)N[C@@H](CCC(=O)O)C(=O)N[C@H](C(=O)N[C@@H](CC(N)=O)C(=O)N[C@@H](CCCCN)C(=O)N[C@@H](CCC(N)=O)C(=O)N[C@H](C(=O)N[C@@H](CC(C)C)C(=O)N[C@@H](CCC(=O)O)C(=O)N[C@@H](CCCNC(=N)N)C(=O)N[C@H](C(N)=O)C(C)C)[C@@H](C)CC)[C@@H](C)O)[C@@H](C)CC)[C@@H](C)CC)C(C)C)C(C)C` [compound 106] (H-IVLSLDVPIKLK([AEEA-AEEA-γGlu-C18 diacid])QILLEQERQK[Aib]QREQAETNKQILERV-NH2), the EC50 in assay [1] (setting [3]) is 0.53 nM; in assay [1] (0.1% HSA, read-out: EC50 [nM], 0.1% HSA) it was 13.2 nM; in assay [2], over 100 nM. In addition, in assay [2], the Emax came to 5.1%.

`CC[C@H](C)[C@H](N)C(=O)N[C@H](C(=O)N[C@@H](CC(C)C)C(=O)N[C@@H](CO)C(=O)N[C@@H](CC(C)C)C(=O)N[C@@H](CC(=O)O)C(=O)N[C@H](C(=O)N1CCC[C@H]1C(=O)N[C@H](C(=O)N[C@@H](CCCCN)C(=O)N[C@@H](CC(C)C)C(=O)N[C@@H](CCCCNC(=O)COCCOCCNC(=O)COCCOCCNC(=O)CC[C@H](NC(=O)CCCCCCCCCCCCCCCCC(=O)O)C(=O)O)C(=O)N[C@@H](CCC(N)=O)C(=O)N[C@H](C(=O)N[C@@H](CC(C)C)C(=O)N[C@@H](CC(C)C)C(=O)N[C@@H](CCCCN)C(=O)N[C@@H](CCC(N)=O)C(=O)N[C@@H](CCC(=O)O)C(=O)N[C@@H](CCCNC(=N)N)C(=O)N[C@@H](CCC(N)=O)C(=O)N[C@@H](CCCCN)C(=O)NC(C)(C)C(=O)N[C@@H](CCC(N)=O)C(=O)N[C@@H](CCCNC(=N)N)C(=O)N[C@@H](CCC(N)=O)C(=O)N[C@@H](CCCCN)C(=O)N[C@@H](C)C(=O)N[C@@H](CCC(=O)O)C(=O)N[C@H](C(=O)N[C@@H](CC(N)=O)C(=O)N[C@@H](CCCCN)C(=O)N[C@@H](CCC(N)=O)C(=O)N[C@H](C(=O)N[C@@H](CC(C)C)C(=O)N[C@@H](C)C(=O)N[C@@H](CCC(N)=O)C(=O)N[C@H](C(N)=O)C(C)C)[C@@H](C)CC)[C@@H](C)O)[C@@H](C)CC)[C@@H](C)CC)C(C)C)C(C)C` [compound 108] (H-IVLSLDVPIKLK([AEEA-AEEA-γGlu-C18 diacid])QILLKQERQK[Aib]QRQKAETNKQILAQV-NH2; N-terminus assumed): the EC50 in assay [1] (setting [3]) is 0.23 nM; in assay [2], over 100 nM. Further, the Emax in assay [2] is -2%.

On to `CC[C@H](C)[C@H](N)C(=O)N[C@H](C(=O)N[C@@H](CC(C)C)C(=O)N[C@@H](CO)C(=O)N[C@@H](CC(C)C)C(=O)N[C@@H](CC(=O)O)C(=O)N[C@H](C(=O)N1CCC[C@H]1C(=O)N[C@H](C(=O)N[C@@H](CCCCN)C(=O)N[C@@H](CC(C)C)C(=O)N[C@@H](CCCCNC(=O)COCCOCCNC(=O)COCCOCCNC(=O)CC[C@H](NC(=O)CCCCCCCCCCCCCCCCC(=O)O)C(=O)O)C(=O)N[C@@H](CCC(N)=O)C(=O)N[C@H](C(=O)N[C@@H](CC(C)C)C(=O)N[C@@H](CC(C)C)C(=O)N[C@@H](CCCCN)C(=O)N[C@@H](CCC(N)=O)C(=O)N[C@@H](CCC(=O)O)C(=O)N[C@@H](CCCNC(=N)N)C(=O)N[C@@H](CCC(N)=O)C(=O)N[C@@H](CCCCN)C(=O)NC(C)(C)C(=O)N[C@@H](CCC(N)=O)C(=O)N[C@@H](CCCNC(=N)N)C(=O)N[C@@H](CCC(=O)O)C(=O)N[C@@H](CCCCN)C(=O)N[C@@H](C)C(=O)N[C@@H](CCC(=O)O)C(=O)N[C@H](C(=O)N[C@@H](CC(N)=O)C(=O)N[C@@H](CCCCN)C(=O)N[C@@H](CCC(N)=O)C(=O)N[C@H](C(=O)N[C@@H](CC(C)C)C(=O)N[C@@H](C)C(=O)N[C@@H](CCC(N)=O)C(=O)N[C@H](C(N)=O)C(C)C)[C@@H](C)CC)[C@@H](C)O)[C@@H](C)CC)[C@@H](C)CC)C(C)C)C(C)C` [compound 109] (H-IVLSLDVPIKLK([AEEA-AEEA-γGlu-C18 diacid])QILLKQERQK[Aib]QREKAETNKQILAQV-NH2), for which the EC50 in assay [1] (setting [3]) worked out at 0.95 nM. In assay [2], the 50% effective concentration (EC50) is over 100 nM and the Emax amounted to 1.1%.

For the compound `CC[C@H](C)[C@H](N)C(=O)N[C@H](C(=O)N[C@@H](CC(C)C)C(=O)N[C@@H](CO)C(=O)N[C@@H](CC(C)C)C(=O)N[C@@H](CC(=O)O)C(=O)N[C@H](C(=O)N1CCC[C@H]1C(=O)N[C@H](C(=O)N[C@@H](CCCCN)C(=O)N[C@@H](CC(C)C)C(=O)N[C@@H](CCCCNC(=O)COCCOCCNC(=O)COCCOCCNC(=O)CC[C@H](NC(=O)CCCCCCCCCCCCCCCCC(=O)O)C(=O)O)C(=O)N[C@@H](CCC(N)=O)C(=O)N[C@H](C(=O)N[C@@H](CC(C)C)C(=O)N[C@@H](CC(C)C)C(=O)N[C@@H](CCCCN)C(=O)N[C@@H](CCC(N)=O)C(=O)N[C@@H](CCC(=O)O)C(=O)N[C@@H](CCCNC(=N)N)C(=O)N[C@@H](CCC(N)=O)C(=O)N[C@@H](CCCCN)C(=O)NC(C)(C)C(=O)N[C@@H](CCC(N)=O)C(=O)N[C@@H](CCCNC(=N)N)C(=O)N[C@@H](CCC(N)=O)C(=O)N[C@@H](CCC(N)=O)C(=O)N[C@@H](C)C(=O)N[C@@H](CCC(=O)O)C(=O)N[C@H](C(=O)N[C@@H](CC(N)=O)C(=O)N[C@@H](CCCCN)C(=O)N[C@@H](CCC(N)=O)C(=O)N[C@H](C(=O)N[C@@H](CC(C)C)C(=O)N[C@@H](C)C(=O)N[C@@H](CCC(N)=O)C(=O)N[C@H](C(N)=O)C(C)C)[C@@H](C)CC)[C@@H](C)O)[C@@H](C)CC)[C@@H](C)CC)C(C)C)C(C)C` [compound 110] (H-IVLSLDVPIKLK([AEEA-AEEA-γGlu-C18 diacid])QILLKQERQK[Aib]QRQQAETNKQILAQV-NH2; N-terminus assumed), the EC50 in assay [1] (setting [3]) turned out to be 0.18 nM. Further, in assay [2], the EC50 was over 100 nM and the Emax is 5.4%.

Turning to `CC[C@H](C)[C@H](N)C(=O)N[C@H](C(=O)N[C@@H](CC(C)C)C(=O)N[C@@H](CO)C(=O)N[C@@H](CC(C)C)C(=O)N[C@@H](CC(=O)O)C(=O)N[C@H](C(=O)N1CCC[C@H]1C(=O)N[C@H](C(=O)N[C@@H](CCCCN)C(=O)N[C@@H](CC(C)C)C(=O)N[C@@H](CCCCNC(=O)COCCOCCNC(=O)COCCOCCNC(=O)CC[C@H](NC(=O)CCCCCCCCCCCCCCCCC(=O)O)C(=O)O)C(=O)N[C@@H](CCC(N)=O)C(=O)N[C@H](C(=O)N[C@@H](CC(C)C)C(=O)N[C@@H](CC(C)C)C(=O)N[C@@H](CCCCN)C(=O)N[C@@H](CCC(N)=O)C(=O)N[C@@H](CCC(=O)O)C(=O)N[C@@H](CCCNC(=N)N)C(=O)N[C@@H](CCC(N)=O)C(=O)N[C@@H](CCCCN)C(=O)NC(C)(C)C(=O)N[C@@H](CCC(N)=O)C(=O)N[C@@H](CCCNC(=N)N)C(=O)N[C@@H](CCC(=O)O)C(=O)N[C@@H](CCCCN)C(=O)N[C@@H](C)C(=O)N[C@@H](CCC(=O)O)C(=O)N[C@@H](CCCCN)C(=O)N[C@@H](CC(N)=O)C(=O)N[C@@H](CCCCN)C(=O)N[C@@H](CCC(N)=O)C(=O)N[C@H](C(=O)N[C@@H](CC(C)C)C(=O)N[C@@H](C)C(=O)N[C@@H](CCC(N)=O)C(=O)N[C@H](C(N)=O)C(C)C)[C@@H](C)CC)[C@@H](C)CC)[C@@H](C)CC)C(C)C)C(C)C` [compound 116] (H-IVLSLDVPIKLK([AEEA-AEEA-γGlu-C18 diacid])QILLKQERQK[Aib]QREKAEKNKQILAQV-NH2; N-terminus assumed), the EC50 in assay [1] (setting [3]) was 0.7 nM; in assay [2], over 100 nM. Besides, the Emax in assay [2] is 0.8%.
